Read-outs that look alike come from different tables or passages of the source.
Experiments:
LlFpg = biological target: T1, LlFpg (Lactococcus lactis subsp. cremoris, UniProt P42371); assay: LlFpg 8-oxoG-DNA glycosylase/AP lyase activity assay (Urea-PAGE radioassay); type: biochemical; details: for inhibition of Fpg catalytic activity by reduced forms: 400 µM, homogeneous reduced form
T1 construct: made in house; host or cells: E. coli BH540 (fpg defective)
Method: Figure 1 Effect of 2-thioxanthine (2TX)-derivatives on Fpg activity. A total of 20 nM of 5′-[^32P]-8-oxoG-containing 24-bp DNA duplex (labeled on the damaged strand) was incubated with 2 nM of LlFpg alone (dimethyl sulfoxide (DMSO) control) or with the indicated 2TX and 2TX-derivatives (TXn) concentrations, as described in the “Materials and Methods” section. (a) Screening of TXn for Fpg inhibition. Averages and standard deviations were obtained from at least three independent experiments. Mono- and di-thiolated compounds are highlighted in red and blue, respectively. (b) Dose-response curves for best inhibitors. Each data point represents the mean value obtained from at least three independent measurements.
(§1) Fpg, hNeil1 and mvNei1 are bifunctional DNA glycosylases associated with concerted DNA glycosylase activity (cleavage of the N-glycosidic bond between the base lesion and the C1′ of the deoxyribose) and AP lyase activity that comprises the successive cleavage of the phosphodiester bonds at the 3′ and 5′ of the resulting abasic (AP) site, respectively (β, δ-elimination). Thus, AP sites that result from the excision of the damaged base are quantitatively converted into one nucleoside gap by these enzymes. The DNA glycosylase/AP lyase activity of each enzyme was measured by incubating 20 nM of 24-mer DNA duplexes ([OG:C] and [DHU:G] for Fpg and hNeil1/mvNei1, respectively) 5′-labeling on the damaged strand (see above) with 2 nM of Fpg, or mvNei1 for 15 min or, with 20 nM of hNeil1 for 30 min at 37 °C in 10 mM Tris-HCl, pH 7.6, 150 mM NaCl, 1 mM EDTA, 0.1 mg/mL BSA and 8% DMSO. The reaction was stopped by the addition of 1 volume of formamide loading buffer (96% formamide, 20 mM Tris/HCl pH 8.0 and 2 mM Na2EDTA), heated at 80 °C for 2 min and then analyzed by 20% Urea-PAGE, as previously described. […] Under these conditions, only 50% of the substrate is converted to the cleavage product (limiting enzyme concentration conditions). For an initial evaluation of the inhibitory effect, 40 µM of 2TX/TXn was used. The thio-compound was added to the reaction mixture before the final addition of the enzyme (competition condition). For the best identified inhibitors, a dose-response curve was generated and IC50^A determined (Figure 1 and Table 1).

LlFpg/DNA complex C1 = biological target: T2, LlFpg/DNA complex C1 (Lactococcus lactis subsp. cremoris, UniProt P42371); assay: EMSA, Fpg DNA binding to 14-mer [THF:C] duplex, complex C1 (lesion recognition complex, Fpg/DNA 1/1); details: homogeneous reduced or disulfide form in 50 mM sodium phosphate; 14-mer [THF:C]; read-out: IC50^B (Fpg DNA binding), homogeneous redox forms
T2 construct: made in house; host or cells: E. coli BH540 (fpg defective)
Excerpt: (§2) To complement this study, we examined the effect of TXn on the binding of Fpg to a short DNA duplex containing a tetrahydrofuran (THF), a non-cleavable AP site analog. The enzyme specifically recognizes THF and forms a stable abortive complex with DNA [18, 34, 35, 36]. […] A representative titration experiment (with and without TCEP) of the 14-mer [THF:C] Fpg formed two stable complexes with this short DNA probe that were easily observed by EMSA: a high-affinity complex C1 corresponding to the lesion recognition complex (LRC), with nanomolar affinity, and a complex C2 only observed at higher Fpg concentrations. C2 results in C1 titration by a second Fpg molecule. This finding illustrates that the crystal structure of Fpg bound to 8-oxoG-carbanucleotide-containing DNA [38] (Figure S5). The stability of each preformed complex was then examined by EMSA in the presence of 2TX or TXn. […] The enzyme inactivation mediated by 2TX through ZnF oxidation that directly affects the DNA binding properties of the enzyme is also in agreement with this last observation.
Figure 2 The effect of 2TX and TXn on Fpg DNA binding to abasic site-containing DNA. A 14-mer DNA duplex containing a tetrahydrofurane (THF) site as an abasic site analog was incubated with a limiting Fpg concentration (0.25 nM) with and without increasing concentrations of TXn. Incubation mixtures were then analyzed by electrophoretic mobility shift assay (EMSA), as described in the ‘Materials and Methods’. (a) Titration experiments with (+) and without (-) 2 mM tris(2-carboxyethyl)phosphine hydrochloride (TCEP) C1 and C2 are for the [1/1] and [2/1] Fpg/DNA complexes, respectively (see detailed in the text). (b) Fpg DNA binding concentration-dependence for 2TX and the more efficient TXn inhibitors. A representative EMSA autoradiography with 0.25 nM of Fpg alone (lane no) and 0.5, 2.5, 5, 10, 20, 40, 50, 250, 1000 µM is shown in the upper panel. IC50app^B corresponds to the TXn amount needed to halve the C1 complex formation and was extracted from the dose-response curves (lower panel; Table 1).
(§3) The DNA binding activity was measured using EMSA [37]. Briefly, 0.1 nM of the 5′-labeled 14-mer [THF:C] (see above) was incubated with the enzyme at 4 °C for 30 min in 25 mM HEPES/NaOH (pH 7.5), 150 mM NaCl, 5% glycerol, 0.1 mg/mL BSA and 8% DMSO. The incubation mixture was then loaded onto a native 10% polyacrylamide gel (Acryl/Bis 19/1) and electrophoresed at 25 V/cm for 90 min at 4 °C. After electrophoresis, the gels were dried and exposed overnight for autoradiography using a Typhoon imager and quantified with ImageQuant software. To evaluate the inhibitor effect of 2TX/TXn on the DNA binding activity of each Fpg/Nei enzyme, we first determined the experimental conditions required to bind 50% of the DNA probes without an inhibitor in the presence of 8% DMSO (limiting enzyme concentration). Under these conditions, we obtained the half-maximal DNA binding 0.25, 7 and 5 nM of Fpg, hNeil1 and mvNei1. We used this limited enzyme concentrations to evaluate the inhibitor effect of 2TX/TXn on the enzyme DNA binding activity. This effect was determined by the addition of the thio-compound in the pre-equilibrium mixture of the enzyme and DNA probe (30 min) and incubated for an additional 30 min at 4 °C. For the best inhibitors of Fpg, a dose-response curve was established from at least three independent experiments and the IC50 was determined (IC50^B, Table 1).

mvNei1 [1] = biological target: T3, mvNei1 (Acanthamoeba polyphaga mimivirus, UniProt Q5UQ00); assay: mvNei1 DNA glycosylase/AP lyase activity assay on DHU:G 24-mer duplex; type: biochemical; details: for inhibition of mvNei1 by homogeneous disulfide forms: Figure 6d
T3 construct: 6His (C); made in house; host or cells: E. coli Rosetta2 (DE3)
T3 sequence (Q5UQ00 whole entry): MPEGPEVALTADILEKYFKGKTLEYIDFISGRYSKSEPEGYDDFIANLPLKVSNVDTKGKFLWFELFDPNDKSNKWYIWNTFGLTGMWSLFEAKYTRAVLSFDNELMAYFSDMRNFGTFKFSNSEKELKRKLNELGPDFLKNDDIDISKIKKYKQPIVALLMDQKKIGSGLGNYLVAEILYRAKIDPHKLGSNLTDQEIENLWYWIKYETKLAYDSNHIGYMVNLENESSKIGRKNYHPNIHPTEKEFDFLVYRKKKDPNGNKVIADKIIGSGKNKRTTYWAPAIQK
Method: (§4) Figure 4 Comparative analysis of the effect of 2TX and TXn on Fpg/Nei DNA glycosylases. Enzyme activities were measured as described in the Figure 1 legend using […] of a 5′-[^32P]-24-mer DNA duplex containing either an 8-oxoG opposite C for LlFpg or a […] (DHU) opposite G for hNeil1 and mvNei1. The DNA probe was incubated with the indicated protein concentration and 0.2 mM TXn compounds in the presence or absence of 1 mM dithiothreitol (DTT) and TCEP (a representative experiment is illustrated by the upper histograms). The DNA probe for EMSA was 0.1 nM of 5′-[^32P]-24-mer DNA duplex containing THF with LlFpg and mvNei1 (bottom panels: gel autoradiography) with the indicated conditions and as described in ‘Materials and Methods’.
as §1

hNeil1 [2] = biological target: T4, hNeil1 (Homo sapiens, UniProt Q96FI4); assay: EMSA, hNeil1 DNA binding to THF-containing DNA duplex; details: Figure 4
Target sequence in this assay (Q96FI4 2-290 limits assumed): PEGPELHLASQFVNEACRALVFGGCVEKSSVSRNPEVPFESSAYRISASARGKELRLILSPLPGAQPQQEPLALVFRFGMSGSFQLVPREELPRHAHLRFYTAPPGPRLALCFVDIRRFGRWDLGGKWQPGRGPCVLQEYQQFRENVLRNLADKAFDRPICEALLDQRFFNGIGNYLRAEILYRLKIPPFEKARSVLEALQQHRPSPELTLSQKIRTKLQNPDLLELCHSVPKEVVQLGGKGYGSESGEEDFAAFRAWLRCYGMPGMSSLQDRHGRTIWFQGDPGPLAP

mvNei1 [3] = biological target: T3, mvNei1; assay: EMSA, mvNei1 DNA binding to THF-containing DNA duplex; details: Figure 4
Method: as §4, with “The DNA probe for EMSA was 0.1 nM of 5′-[^32P]-24-mer DNA duplex containing THF with LlFpg and mvNei1 (bottom panels: gel autoradiography) with the indicated conditions and as described in ‘Materials and Methods’.” left out
The DNA binding activity was measured using EMSA [37]. […] After electrophoresis, the gels were dried and exposed overnight for autoradiography using a Typhoon imager and quantified with ImageQuant software. To evaluate the inhibitor effect of 2TX/TXn on the DNA binding activity of each Fpg/Nei enzyme, we first determined the experimental conditions required to bind 50% of the DNA probes without an inhibitor in the presence of 8% DMSO (limiting enzyme concentration). […] This effect was determined by the addition of the thio-compound in the pre-equilibrium mixture of the enzyme and DNA probe (30 min) and incubated for an additional 30 min at 4 °C. For the best inhibitors of Fpg, a dose-response curve was established from at least three independent experiments and the IC50 was determined (IC50^B, Table 1).

hNeil1 [4] = biological target: T4, hNeil1; assay: hNeil1 DNA glycosylase/AP lyase activity assay on DHU:G 24-mer duplex; type: biochemical; parameters: Overproduction was performed as described above for full length hNeil1; 6His (C); made in house; host or cells: E. coli Rosetta2 (DE3); details: for inhibition of hNeil1 by homogeneous disulfide forms: Figure 6d
Method: as §4, §1
Target sequence in this assay (Q96FI4 whole entry): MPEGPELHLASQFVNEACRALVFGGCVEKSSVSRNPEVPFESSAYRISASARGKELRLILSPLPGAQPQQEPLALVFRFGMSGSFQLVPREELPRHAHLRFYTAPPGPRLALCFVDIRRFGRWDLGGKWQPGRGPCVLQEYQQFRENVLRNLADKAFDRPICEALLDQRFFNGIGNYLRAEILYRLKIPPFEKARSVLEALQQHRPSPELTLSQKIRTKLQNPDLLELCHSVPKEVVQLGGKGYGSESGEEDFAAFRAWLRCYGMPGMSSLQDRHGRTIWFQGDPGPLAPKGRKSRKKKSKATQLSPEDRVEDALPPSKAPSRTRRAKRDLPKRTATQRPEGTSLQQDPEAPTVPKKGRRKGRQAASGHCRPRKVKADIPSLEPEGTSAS

LlFpg/DNA complex C2 = biological target: T5, LlFpg/DNA complex C2 (Lactococcus lactis subsp. cremoris, UniProt P42371); assay: EMSA, Fpg DNA binding to 14-mer [THF:C] duplex, non-specific complex C2 (Fpg/DNA 2/1); details: 2 mM TCEP, 6.7-fold molar excess over compound; Figure 3
T5 construct: made in house; host or cells: E. coli BH540 (fpg defective)
T5 sequence (P42371 2-273 limits assumed): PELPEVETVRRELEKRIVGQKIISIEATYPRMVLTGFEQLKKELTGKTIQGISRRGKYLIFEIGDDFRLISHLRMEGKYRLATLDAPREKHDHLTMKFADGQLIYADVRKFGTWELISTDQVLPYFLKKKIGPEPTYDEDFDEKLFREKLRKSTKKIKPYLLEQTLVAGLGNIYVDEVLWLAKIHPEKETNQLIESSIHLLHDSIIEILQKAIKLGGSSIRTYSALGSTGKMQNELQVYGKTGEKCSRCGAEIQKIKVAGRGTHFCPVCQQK
Excerpt: as §2
The inhibitor concentrations that induced the loss of the half-maximal binding (IC50app^B) were determined from these curves and are reported in Table 1. IC50app^B compared well with IC50app^A. As observed above for the enzyme activity, strong reducers, such as TCEP, abolished the negative effects of 2TX and TXn on Fpg/DNA complex stability and formation. These findings again indicate that inhibition by thio-compounds essentially relies on the oxidation of the Fpg ZnF (for an example, see experiment with TX19, Figure S4). […] This troubling and unexpected observation led us to evaluate this effect with the TXn small library compounds. To prevent a side effect due to a possible partial reduction by TCEP, we performed EMSA in the presence of a 6.7-fold molar excess of TCEP with respect to 2TX and TXn after complex formation (Figure 3).
Figure 3 Impact of TXn on the non-specific Fpg/DNA complex C2 stability in highly reducing conditions. EMSA was performed as described in the ‘Material & Methods’, except TCEP was added at a 2 mM final concentration in each binding assay. (a) Representative experiment at 0.3 mM 2TX and more efficient TXn; (b) Dose-response with the best TXn. Upper panel: Representative EMSA experiment with TX10. Lower panel: Dose-response curves with the indicated TXn.
as §3, with “1). […]” for “1).”
Rieux et al. Thiopurine derivative-induced Fpg/Nei DNA glycosylase inhibition:
structural, dynamic and functional insights
Figure S6. […]

[5] = homogeneous reduced or disulfide form dissolved in 50 mM sodium phosphate, no DMSO stock, read-out: IC50^A (Fpg catalysis), homogeneous redox forms
[6] = 1 mM TCEP (DTT to a lesser extent), Figure 4

O=c1[nH]c(=S)[nH]c2[nH]cnc12 [Compound 2TXRed, reference compound]
inhibition of Fpg catalytic activity by reduced forms (LlFpg): did not inhibit the enzyme | IC50 (LlFpg; [5]): > 1000 µM | IC50 (LlFpg/DNA complex C1): > 1000 µM

O=c1[nH]c2[nH]c(=S)[nH]c(=S)c2[nH]1 [TX16]
IC50 (LlFpg; catalytic activity at 37 °C, compound stock (redox mixture) in DMSO, 20 nM 8-oxoG:C 24-mer, 2 nM LlFpg, read-out: IC50app^A (Fpg/Nei enzyme catalysis) LlFpg): 41 ± 7 µM | effect on mvNei1 catalytic activity (mvNei1 [1]; 0.2 mM compound, Figure 4): apparent inhibitory effects | inhibition of mvNei1 DNA binding and catalytic activities in the presence of TCEP (mvNei1 [1]; [6]): suppressed | IC50 (mvNei1 [1]; catalytic activity at 37 °C, compound stock in DMSO, DHU:G 24-mer, read-out: IC50app^A (Fpg/Nei enzyme catalysis) mvNEI1): 14 ± 1 µM | effect on hNeil1 DNA binding activity (hNeil1 [2]): apparent inhibitory effects | effect on mvNei1 DNA binding activity (mvNei1 [3]): apparent inhibitory effects | effect on hNeil1 catalytic activity (hNeil1 [4]; 0.2 mM compound, Figure 4): apparent inhibitory effects | inhibition of hNeil1 DNA binding and catalytic activities in the presence of TCEP (hNeil1 [4]; [6]): suppressed | IC50 (hNeil1 [4]; catalytic activity at 37 °C, compound stock in DMSO, DHU:G 24-mer, read-out: IC50app^A (Fpg/Nei enzyme catalysis) hNEIL1): 21 ± 1 µM

O=c1[nH]c(SSc2nc3[nH]cnc3c(=O)[nH]2)nc2[nH]cnc12 [Compound 2TXOx]
IC50 (LlFpg; [5]): 5.5 µM | inhibition of mvNei1 by homogeneous disulfide forms (mvNei1 [1]): neither 2TXOx nor TX14Ox inhibited | IC50 (LlFpg/DNA complex C1): 34 ± 2 µM | inhibition of hNeil1 by homogeneous disulfide forms (hNeil1 [4]): neither 2TXOx nor TX14Ox inhibited

O=c1[nH]c2nc(SSc3nc4[nH]c(=O)[nH]c4c(=O)[nH]3)[nH]c(=O)c2[nH]1 [TX14Ox]
IC50 (LlFpg; [5]): 2.7 µM | inhibition of mvNei1 by homogeneous disulfide forms (mvNei1 [1]): neither 2TXOx nor TX14Ox inhibited | IC50 (LlFpg/DNA complex C1): 26 ± 1 µM | inhibition of hNeil1 by homogeneous disulfide forms (hNeil1 [4]): neither 2TXOx nor TX14Ox inhibited

CNc1nc(C(F)(F)F)nc2[nH]cnc12 [TX11]
destabilization of complex C2 in highly reducing conditions (LlFpg/DNA complex C2): among the best C2 destabilizers

Cc1nc(S)c2[nH]cnc2n1 [TX4]
effect on Fpg 8-oxoG-DNA glycosylase/AP lyase activity (screening) (LlFpg; 40 µM compound, Figure 1a): drastically decreased the inhibitory effect

COc1nc(C(F)(F)F)nc2[nH]cnc12 [TX10]
destabilization of complex C2 in highly reducing conditions (LlFpg/DNA complex C2): among the best C2 destabilizers

O=c1[nH]c2[nH]c(=S)[nH]c(=O)c2[nH]1 [TX14Red]
inhibition of Fpg catalytic activity by reduced forms (LlFpg): did not inhibit the enzyme | IC50 (LlFpg; [5]): > 1000 µM | IC50 (LlFpg/DNA complex C1): > 1000 µM

Source: paper PMC7139703, “Thiopurine Derivative-Induced Fpg/Nei DNA Glycosylase Inhibition: Structural, Dynamic and Functional Insights” (International Journal of Molecular Sciences, 2020)
